Measurements reported in the supplement of paper PMC10307832.

Assays:
Assay in all cases: relative viability (nuclei count vs DMSO), 5 days (fraction); higher = more cells survive
Afatinib = compound: CN(C)C/C=C/C(=O)Nc1cc2c(Nc3ccc(F)c(Cl)c3)ncnc2cc1O[C@H]1CCOC1 [Afatinib]
Summary of the method: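 Lung cancer cell lines in 1536-well plates were kept overnight at 37 °C, then pinned with five library-drug doses (not always all listed) spaced by √10 on vehicle-anchored plates. After 5 days without medium change, cells were fixed, permeabilised and Hoechst-stained in one step, imaged at 4×, and nuclei were counted with MetaXpress. Viability is treated-well nuclei divided by vehicle-well nuclei, taken as the median over plates. Plates passed only with control CV below 25% and at least one doubling.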

Afatinib + Olaparib = compound: CN(C)C/C=C/C(=O)Nc1cc2c(Nc3ccc(F)c(Cl)c3)ncnc2cc1O[C@H]1CCOC1 [Afatinib] + O=C(c1cc(Cc2n[nH]c(=O)c3ccccc23)ccc1F)N1CCN(C(=O)C2CC2)CC1 [Olaparib] (partner 8 µM)
Summary of the method: (§1)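 Lung cancer cell lines, seeded in 1536-well plates, were treated the following day by pin tool with a single drug or with five library-drug doses (not always all listed) in √10 steps on top of a fixed anchor-drug dose. Cells were fixed and nuclei stained in one step after 5 days, and nuclei were counted. Relative viability is the nuclei count for treated wells divided by that for vehicle wells, reported as medians of duplicate plates.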

Afatinib + Phenformin = compound: CN(C)C/C=C/C(=O)Nc1cc2c(Nc3ccc(F)c(Cl)c3)ncnc2cc1O[C@H]1CCOC1 [Afatinib] + N=C(N)NC(=N)NCCc1ccccc1 [Phenformin] (partner 250 µM)
Summary of the method: as §1

Afatinib + Trametinib = compound: CN(C)C/C=C/C(=O)Nc1cc2c(Nc3ccc(F)c(Cl)c3)ncnc2cc1O[C@H]1CCOC1 [Afatinib] + CC(=O)Nc1cccc(-n2c(=O)n(C3CC3)c(=O)c3c(Nc4ccc(I)cc4F)n(C)c(=O)c(C)c32)c1 [Trametinib] (partner 0.02 µM)
Summary of the method: as §1

Cell Line	relative viability (Afatinib; 0.005 µM)	relative viability (Afatinib; 0.01581 µM)	relative viability (Afatinib; 0.05 µM)	relative viability (Afatinib; 0.1581 µM)	relative viability (Afatinib; 0.5 µM)	relative viability (Afatinib + Olaparib; first compound 0.005 µM)	relative viability (Afatinib + Olaparib; first compound 0.01581 µM)	relative viability (Afatinib + Olaparib; first compound 0.05 µM)	relative viability (Afatinib + Olaparib; first compound 0.1581 µM)	relative viability (Afatinib + Olaparib; first compound 0.5 µM)	relative viability (Afatinib + Phenformin; first compound 0.005 µM)	relative viability (Afatinib + Phenformin; first compound 0.01581 µM)	relative viability (Afatinib + Phenformin; first compound 0.05 µM)	relative viability (Afatinib + Phenformin; first compound 0.1581 µM)	relative viability (Afatinib + Phenformin; first compound 0.5 µM)	relative viability (Afatinib + Trametinib; first compound 0.005 µM)	relative viability (Afatinib + Trametinib; first compound 0.01581 µM)	relative viability (Afatinib + Trametinib; first compound 0.1581 µM)	relative viability (Afatinib + Trametinib; first compound 0.5 µM)	relative viability (Afatinib + Trametinib; first compound 0.05 µM)
LCLC-97TM1	1.1	0.878	1.01	0.993	0.943	0.424	0.351	0.348	0.273	0.397	0.439	0.398	0.438	0.404	0.391	0.17	0.215	0.153	0.171	–
HARA	0.947	0.55	0.471	0.62	0.597	0.688	–	0.344	0.462	0.391	0.391	0.27	0.327	0.376	0.375	0.417	–	0.311	0.38	0.38
HCC-78	1.07	0.89	0.898	0.791	0.815	0.792	0.932	0.852	0.717	0.667	0.892	0.515	0.593	0.648	0.559	0.788	0.677	0.559	0.698	0.723
NCI-H1666	0.95	0.894	0.75	0.707	0.801	0.78	0.792	0.75	0.712	0.681	0.572	0.553	0.607	0.555	0.567	0.673	0.648	0.815	0.791	0.776
NCI-H2347	1.07	1.02	0.976	0.961	0.994	0.571	0.699	0.595	0.566	0.578	0.357	0.456	0.31	0.381	0.415	0.27	0.292	0.275	0.283	0.277
NCI-H838	1.01	0.966	0.988	0.918	1.05	0.803	0.723	0.819	0.757	0.815	0.675	0.54	0.582	0.567	0.553	0.585	0.434	0.525	0.685	0.523
NCI-H2023	0.968	0.85	0.898	0.882	0.886	0.514	0.444	0.489	0.464	0.481	0.436	0.382	0.412	0.291	0.375	0.527	0.505	0.398	0.393	0.489
201T	1.01	0.942	0.944	0.92	0.956	0.846	0.826	0.752	0.78	0.854	0.475	0.444	0.43	0.398	0.387	0.688	0.709	0.673	0.673	0.712
NCI-H1915	1.06	0.988	1	0.973	0.922	0.255	–	0.244	0.27	0.259	0.389	0.379	0.363	0.378	0.33	0.309	0.304	0.3	0.301	0.314
NCI-H2009	1.04	0.998	1.06	0.997	1.06	0.578	0.699	0.743	0.648	0.665	0.515	0.481	0.545	0.424	0.445	0.314	0.217	0.268	0.247	0.319
BEN	1.04	0.897	1.05	1.09	1.06	1.23	1.23	1.18	1.11	1.08	0.29	0.261	0.251	0.253	0.286	1.01	1.1	0.948	1.01	1.11
PC-14	0.371	0.224	0.298	–	0.282	0.193	0.19	0.139	0.12	0.134	0.173	0.123	0.175	0.161	0.171	0.101	0.103	0.0763	0.0964	0.117
SK-MES-1	0.816	0.706	0.568	0.39	0.42	0.682	0.489	0.325	0.334	0.404	0.547	0.64	0.389	0.332	0.369	0.424	0.317	0.307	0.42	0.349
NCI-H727	0.787	0.765	0.758	0.694	0.837	0.827	0.824	0.606	0.572	0.815	0.493	–	0.299	0.613	0.442	0.391	0.359	0.299	0.34	0.393
NCI-H1355	0.976	0.959	0.943	0.849	0.893	0.723	0.768	0.713	0.716	0.67	0.484	0.491	0.482	0.424	0.421	0.366	0.428	0.306	0.341	0.381
NCI-H1975	0.945	0.851	0.79	0.479	0.336	0.917	0.771	0.778	0.59	0.321	0.444	0.413	0.373	0.223	0.166	0.342	0.288	0.242	0.195	0.407
LK-2	1.25	0.91	0.926	0.977	0.956	0.705	0.591	0.725	0.766	0.79	0.471	0.306	0.422	0.488	0.574	0.908	0.846	0.78	0.73	0.633
NCI-H661	1.02	0.863	0.831	0.626	0.691	0.811	0.732	0.638	0.589	0.637	0.292	0.255	0.253	0.247	0.244	0.52	0.415	0.367	0.369	0.457

Cell Line	relative viability (Afatinib; 0.005 µM)	relative viability (Afatinib; 0.01581 µM)	relative viability (Afatinib; 0.05 µM)	relative viability (Afatinib; 0.1581 µM)	relative viability (Afatinib; 0.5 µM)	relative viability (Afatinib + Olaparib; first compound 0.005 µM)	relative viability (Afatinib + Olaparib; first compound 0.01581 µM)	relative viability (Afatinib + Olaparib; first compound 0.05 µM)	relative viability (Afatinib + Olaparib; first compound 0.1581 µM)	relative viability (Afatinib + Olaparib; first compound 0.5 µM)	relative viability (Afatinib + Phenformin; first compound 0.005 µM)	relative viability (Afatinib + Phenformin; first compound 0.01581 µM)	relative viability (Afatinib + Phenformin; first compound 0.05 µM)	relative viability (Afatinib + Phenformin; first compound 0.1581 µM)	relative viability (Afatinib + Phenformin; first compound 0.5 µM)	relative viability (Afatinib + Trametinib; first compound 0.005 µM)	relative viability (Afatinib + Trametinib; first compound 0.01581 µM)	relative viability (Afatinib + Trametinib; first compound 0.1581 µM)	relative viability (Afatinib + Trametinib; first compound 0.5 µM)	relative viability (Afatinib + Trametinib; first compound 0.05 µM)
HCC-366	1.03	1.04	1.03	0.985	0.989	0.299	0.38	0.391	0.3	0.367	0.588	0.61	0.611	0.632	0.595	0.361	0.247	0.293	0.29	0.353
HOP-62	1.12	0.989	1.05	1.03	1.08	0.624	0.329	0.606	0.439	0.423	0.862	0.561	0.748	0.719	0.629	0.354	0.38	0.333	0.378	0.419
NCI-H1944	0.916	0.906	0.794	0.575	0.73	0.384	0.364	0.39	0.326	0.332	0.19	0.195	0.188	0.174	0.166	0.431	0.373	0.259	0.298	0.358
SW 1573	0.978	0.962	1	0.962	0.925	0.624	0.485	0.486	0.421	0.408	0.387	0.376	0.353	0.299	0.393	0.524	0.551	0.526	0.53	0.616
LU99A	1.15	0.984	0.94	0.924	0.975	0.253	0.266	0.249	0.248	0.264	0.837	0.851	0.891	0.944	0.828	0.635	0.569	0.509	0.552	0.589
NCI-H647	0.999	0.878	0.998	0.968	1.04	0.559	0.563	0.526	0.414	0.552	0.664	0.481	0.57	0.692	0.445	0.554	0.465	0.468	0.438	0.451
A-427	1.05	0.918	0.99	1.02	1.01	0.79	0.759	0.779	0.776	0.789	0.33	0.248	0.371	0.267	0.32	0.702	0.686	0.812	0.633	0.733
COR-L 105	0.522	0.387	0.45	0.287	0.309	0.737	0.483	0.422	0.331	0.34	0.294	0.22	0.211	0.203	0.249	0.38	0.315	0.34	0.352	0.379
NCI-H441	1.08	0.997	1.18	0.982	0.948	0.491	0.521	0.649	0.441	0.512	0.92	0.748	0.916	0.736	0.797	0.536	0.347	0.325	0.384	0.396
EBC-1	1.02	0.976	1.02	0.969	1.01	0.714	0.76	0.745	0.676	0.734	–	–	–	–	–	–	–	–	–	–
NCI-H1648	0.881	0.765	0.437	0.478	0.457	0.978	0.617	0.391	0.323	0.469	–	–	–	–	–	0.423	0.462	0.287	0.246	0.316
ABC-1	0.876	0.77	0.876	0.874	0.912	0.779	–	1.04	1.04	0.561	0.245	0.241	0.264	0.239	0.325	–	–	–	–	–
NCI-H1563	0.992	0.932	0.97	0.895	0.99	–	–	–	–	–	0.625	0.667	0.649	0.651	0.623	–	–	–	–	–
NCI-H1299	0.992	0.992	1.06	1.01	0.98	0.981	0.948	0.991	1.02	0.988	–	–	–	–	–	–	–	–	–	–
A549	0.969	1	0.938	0.867	0.858	0.321	0.451	0.359	0.304	0.375	0.152	0.154	0.192	0.162	0.15	–	–	–	–	–
IA-LM	0.925	0.868	0.905	0.883	0.871	1.07	0.821	0.947	0.761	0.805	–	–	–	–	–	–	–	–	–	–
Calu-6	1.09	1	1.02	0.997	0.986	0.565	0.565	0.607	0.573	0.545	–	–	–	–	–	–	–	–	–	–
